Results taken from patent US20020048549A1, “Radioactive transition metal nitride heterocomplex” (priority 1996, published 2002).

Experiments:
serotonin receptor = test: Regional brain biodistribution of 99mTcN-DESI (Group A vs Group B with unlabeled desipramine); format: in vivo, SD rats
Method: The rats were divided into two groups, group A and group B. Into each rat in group A was injected 20 μCi of the ^99mTcN-DESI. Into each rat in group B were injected 20 μCi of the ^99mTcN-DESI and 1.0 mg/kg of unlabeled desipramine at the same time.
SD rats weighing about 250 g were put under intraperitoneal anesthesia with a mixture of xylazine (18 mg/kg) and ketamine (15 mg/kg) and given an injection in the jugular vein. Then, the organs (brain, heart, lung, liver, spleen, kidney, muscle, adrenal, and submaxillary gland) were excised from the rats at different intervals of time, washed and then weighed. In addition, blood samples were collected and then weighed. The data on the biodistribution are expressed as the mean±significant difference of the percentage of radioactivity level per gram of the organ weight based on the dose of radioactivity, (% dose/g). The measurement was carried out using groups of 3 rats each.

[1] = Retention on Sep-Pak C18 reversed phase column (lipophilicity); format: physicochemical
Excerpt: Cation exchange resin: Sep-Pak CM (COONa), illpore, anion exchange resin: Sep-Pak QMA (CONH(CH2)3N(CH3)3^+Cl), Millpore, reversed phase column: Sep-Pak C18, Millpore. The complex was retained in an amount of about 95% in the cation exchange resin, about 60% in the anion exchange resin, or 99.5% in the reversed phase column.

[2] = Group A (complex alone), 30 min
[3] = Group A (complex alone), 60 min
[4] = Group B (with 1.0 mg/kg unlabeled desipramine), 5 min
[5] = Group B (with 1.0 mg/kg unlabeled desipramine), 30 min
[6] = Group B (with 1.0 mg/kg unlabeled desipramine), 60 min

In the case of `COCCC[P+]1(CCCOC)CCN(CCOC)CC[P+](CCCOC)(CCCOC)[99Tc-2]12(#[N])[NH]C(C(=O)N(C)CCCN1c3ccccc3CCc3ccccc31)C[S]2` (centres unmarked) [^99mTcN-DESI], the Cerebellum % dose/g (serotonin receptor; Group A (complex alone), 5 min) is reported as 0.064 ± 0.005 % dose/g, the Cortex % dose/g (serotonin receptor; Group A (complex alone), 5 min) is reported as 0.029 ± 0.004 % dose/g and the Hypothalamus % dose/g (serotonin receptor; Group A (complex alone), 5 min) is reported as 0.325 ± 0.058 % dose/g. The Medulla % dose/g (serotonin receptor; Group A (complex alone), 5 min) was 0.057 ± 0.004 % dose/g, the Striatum % dose/g (serotonin receptor; Group A (complex alone), 5 min) was 0.076 ± 0.025 % dose/g and the Cerebellum % dose/g (serotonin receptor; [2]) was 0.039 ± 0.015 % dose/g. For the same compound, the Cortex % dose/g (serotonin receptor; [2]) was 0.021 ± 0.002 % dose/g, the Hypothalamus % dose/g (serotonin receptor; [2]) was 0.408 ± 0.085 % dose/g and the Medulla % dose/g (serotonin receptor; [2]) was 0.046 ± 0.003 % dose/g. It also gave a Striatum % dose/g (serotonin receptor; [2]) of 0.054 ± 0.017 % dose/g, a Cerebellum % dose/g (serotonin receptor; [3]) of 0.028 ± 0.012 % dose/g and a Cortex % dose/g (serotonin receptor; [3]) of 0.021 ± 0.002 % dose/g. It also gave a Hypothalamus % dose/g (serotonin receptor; [3]) of 0.364 ± 0.069 % dose/g, a Medulla % dose/g (serotonin receptor; [3]) of 0.029 ± 0.006 % dose/g and a Striatum % dose/g (serotonin receptor; [3]) of 0.07 ± 0.019 % dose/g. The Cerebellum % dose/g (serotonin receptor; [4]) was 0.048 ± 0.008 % dose/g, the Cortex % dose/g (serotonin receptor; [4]) was 0.014 ± 0.004 % dose/g and the Hypottalamus % dose/g (serotonin receptor; [4]) was 0.125 ± 0.029 % dose/g. The Medulla % dose/g (serotonin receptor; [4]) was 0.038 ± 0.001 % dose/g, the Striatum % dose/g (serotonin receptor; [4]) was 0.053 ± 0.001 % dose/g and the Cerebellum % dose/g (serotonin receptor; [5]) was 0.035 ± 0.007 % dose/g. The Cortex % dose/g (serotonin receptor; [5]) was 0.009 ± 0.002 % dose/g, the Hypottalamus % dose/g (serotonin receptor; [5]) was 0.162 ± 0.106 % dose/g and the Medulla % dose/g (serotonin receptor; [5]) was 0.027 ± 0.013 % dose/g. For the same compound, the Striatum % dose/g (serotonin receptor; [5]) was 0.023 ± 0.003 % dose/g, the Cerebellum % dose/g (serotonin receptor; [6]) was 0.031 ± 0.011 % dose/g and the Cortex % dose/g (serotonin receptor; [6]) was 0.006 ± 0.000 % dose/g. For the same compound, the Hypottalamus % dose/g (serotonin receptor; [6]) was 0.152 ± 0.033 % dose/g, the Medulla % dose/g (serotonin receptor; [6]) was 0.016 ± 0.002 % dose/g and the Striatum % dose/g (serotonin receptor; [6]) was 0.035 ± 0.011 % dose/g. For the same compound, the accumulation in cortex (serotonin receptor; group A, no unlabeled desipramine) was “specifically accumulated”, the accumulation in cortex (serotonin receptor; group B, unlabeled desipramine administered) was “very small amount” and the “specificity for serotonin receptor” value (serotonin receptor; suggested from group A vs group B cortex accumulation) was “retained specificity for serotonin receptor”. For the same compound, the “amount retained in the reversed phase column” value [1] was 99.5% and the “lipophilicity suggested by retention in reversed phase column” value [1] was “high lipophilic”.
